Work on `Cc1cc(-n2nc(OC(C)C)oc2=O)ccc1NC(=O)OCc1ccccc1` [Example 75, 5-isopropoxy-3-(3-methyl-4-benzyloxycarbonylaminophenyl)-3H-(1,3,4)oxadiazol-2-one] yielded a melting point of 119 °C.
Work on `COc1nn(-c2ccc(NC(=O)c3ccc(Cl)c(Cl)c3)cc2)c(=O)o1` [Example 72, 5-Methoxy-3-(4-(3,4-dichlorobenzoylamino)phenyl)-3H-(1,3,4)oxadiazol-2-one] yielded a melting point of 200 °C.
With `COc1nn(-c2ccc(NC(=O)Nc3ccccn3)cc2)c(=O)o1` [Example 59, 5-Methoxy-3-(4-(pyrid-2-yl)aminocarbonylaminophenyl)-3H-(1,3,4)oxadiazol-2-one] the melting point was 81 °C.
In the case of `COc1nn(-c2ccc(NS(=O)(=O)CC(F)(F)F)c(C)c2)c(=O)o1` [Example 40, 5-Methoxy-3-(4-(2,2,2-trifluoroethylsulfonylamino)-3-methylphenyl)-3H-(1,3,4)oxadiazol-2-one], the melting point is reported as 151 °C.
With `COc1nn(-c2ccc(N)c(OCc3ccc(F)cc3)c2)c(=O)o1` [Example 29, 5-Methoxy-3-(4-amino-3-(4-fluorobenzyloxy)phenyl)-3H-(1,3,4)oxadiazol-2-one] the melting point was 195 °C.
With `CCCCOC(=O)Nc1ccc(-n2nc(OC(C)C)oc2=O)cc1C` [Example 76, 5-isopropoxy-3-(3-methyl-4-butyloxycarbonylaminophenyl)-3H-(1,3,4)oxadiazol-2-one] the melting point was 114 °C.
In the case of `COc1nn(-c2ccc(NC(=O)C(C)(C)Oc3ccc(Cl)cc3)cc2)c(=O)o1` [Example 73, 5-Methoxy-3-(4-(2-(4-chlorophenoxy)-2-methylpropionylamino)phenyl)-3H-(1,3,4)oxadiazol-2-one], the melting point is reported as 153 °C.
Compound `COc1nn(-c2ccc([N+](=O)[O-])c(OCc3ccc(F)cc3)c2)c(=O)o1` [Example 24, 5-Methoxy-3-(3-(4-fluorobenzyloxy)-4-nitrophenyl)-3H-(1,3,4)oxadiazol-2-one] has a melting point of 137 °C.
`COc1nn(-c2ccc([N+](=O)[O-])c(F)c2)c(=O)o1` gave a melting point of 127 °C.
`CNc1ccc(-n2nc(OC)oc2=O)cc1OCc1ccc(F)cc1` [Example 55, 5-Methoxy-3-(3-(4-fluorobenzyloxy)-4-methylaminophenyl)-3H-(1,3,4)oxadiazol-2-one] gave a melting point of 98 °C.
In the case of `COc1nn(-c2ccc([N+](=O)[O-])c(C)c2)c(=O)o1` [Example 20, 5-Methoxy-3-(3-methyl-4-nitrophenyl)-3H-(1,3,4)oxadiazol-2-one], the melting point is reported as 112 °C.
For `COc1nn(-c2ccc(NS(=O)(=O)C(C)C)cc2)c(=O)o1` [Example 49, 5-Methoxy-3-(4-isopropylsulfonylaminophenyl)-3H-(1,3,4)oxadiazol-2-one], the melting point was 190 °C.
In the case of `COc1nn(-c2ccc(N(C)C)c(C)c2)c(=O)o1` [Example 50, 5-Methoxy-3-(4-dimethylamino-3-methylphenyl)-3H-(1,3,4)oxad iazol-2-one], the melting point is reported as 71 °C.
Compound `Cc1cc(-n2nc(OC(C)C)oc2=O)ccc1NC(=O)Nc1cccc(Cl)c1` [Example 77, 5-isopropoxy-3-(3-methyl-4-(3-chlorophenylaminocarbonylamino)phenyl)-3H-(1,3,4)oxadiazol-2-one] has a melting point of 201 °C.
In the case of `COc1nn(-c2ccc([N+](=O)[O-])cc2C)c(=O)o1` [Example 23, 5-Methoxy-3-(2-methyl-4-nitrophenyl)-3H-(1,3,4)oxadiazol-2-one], the melting point is reported as 111 °C.
With `COc1nn(-c2ccc(NC(=O)Oc3ccccc3)c(C)c2)c(=O)o1` the melting point was 145 °C.
`COc1nn(-c2ccc(NC(=O)Cc3ccc(Cl)cc3)c(C)c2)c(=O)o1` [Example 31, 5-Methoxy-3-(4-(4-chlorophenylacetylamino)-3-methylphenyl)-3H-(1,3,4)oxadiazol-2-one] gave a melting point of 190 °C.
`COc1nn(-c2ccc(NC(=O)c3ccc(C(F)(F)F)cc3)c(OCc3ccccc3)c2)c(=O)o1` [Example 86, 5-Methoxy-3-(3-benzyloxy-4-(4-trifluoromethylbenzoylamino)phenyl)-3H-(1,3,4)oxadiazol-2-one] showed a melting point of 159 °C.
For `COc1nn(-c2ccc(NC(=O)OCc3ccccc3)cc2Cl)c(=O)o1` [Example 67, 5-Methoxy-3-(2-chloro-4-benzyloxycarbonylaminophenyl)-3H-(1,3,4)oxadiazol-2-one], the melting point was 150 °C.
For `COc1nn(-c2ccc(NS(=O)(=O)Cc3ccccc3)cc2)c(=O)o1` [Example 47, 5-Methoxy-3-(4-benzylsulfonylaminophenyl)-3H-(1,3,4)oxadiazol-2-one], the melting point was 153 °C.
Work on `COc1nn(-c2ccc(NC(=O)OCC(F)(F)F)c(C)c2)c(=O)o1` [Example 88, 5-Methoxy-3-(3-methyl-4-(2,2,2-trifluoroethoxycarbonylamino)phenyl)-3H-(1,3, 4)oxadiazol-2-one] yielded a melting point of 141 °C.
For `COc1nn(-c2ccc(N)cc2Cl)c(=O)o1` [Example 63, 5-Methoxy-3-(4-amino-2-chlorophenyl)-3H-(1,3,4)oxadiazol-2-one], the melting point was 126 °C.
`COc1nn(-c2ccc(NC(=O)Cc3ccc(Cl)cc3)c(OCc3ccc(F)cc3)c2)c(=O)o1` [Example 46, 5-Methoxy-3-(4-(4-chlorophenylacetylamino)-3-(4-fluorobenzyloxy)phenyl)-3H-(1,3,4)oxadiazol-2-one] showed a melting point of 167 °C.
`COc1ccc2cc(C(=O)Nc3ccc(-n4nc(OC)oc4=O)cc3)oc2c1` [Example 90, 5-Methoxy-3-(4-(6-methoxybenzofuran-2-yl-carbonylamino)phenyl)-3H-(1,3,4)oxadiazol-2-one] showed a melting point of 191 °C.
`COc1nn(-c2cccc(N(Cc3ccccc3)Cc3ccccc3)c2)c(=O)o1` [Example 57, 5-Methoxy-3-(3-dibenzylaminophenyl)-3H-(1,3,4)oxadiazol-2-one] showed a melting point of 71 °C.
For `COc1nn(-c2ccc(NS(=O)(=O)c3ccc(Cl)cc3)cc2)c(=O)o1` [Example 43, 5-Methoxy-3-(4-(4-chlorophenylsulfonylamino)phenyl)-3H-(1,3,4)oxadiazol-2-one], the melting point was 169 °C.
Work on `Cc1cc(-n2nc(OC(C)(C)C)oc2=O)ccc1NC(=O)OCc1ccccc1` [Example 78, 5-tert-Butoxy-3-(3-methyl-4-benzyloxycarbonylaminophenyl)-3H-(1,3,4)oxadiazol-2-one] yielded a melting point of 113 °C.
Work on `COc1nn(-c2ccc(Oc3ccc(Cl)cc3)c(N)c2)c(=O)o1` [Example 27, 5-Methoxy-3-(3-amino-4-(4-chlorophenoxy)phenyl)-3H-(1,3,4)oxadiazol-2-one] yielded a melting point of 133 °C.
Work on `COc1nn(-c2ccc(NC(=O)c3ccc(OC(F)(F)F)cc3)cc2C)c(=O)o1` [Example 66, 5-Methoxy-3-(2-methyl-4-(4-trifluoromethoxybenzoylamino)phenyl)-3H-(1,3,4)oxadiazol-2-one] yielded a melting point of 150 °C.
In the case of `COc1nn(-c2ccc(NC(=O)N3CCCCC3)c(C)c2)c(=O)o1` [Example 89, 5-Methoxy-3-(3-methyl-4-piperidinocarbonylaminophenyl)-3H-(1,3,4)oxadiazol-2-one], the melting point is reported as 154 °C.
`COc1nn(-c2ccc([N+](=O)[O-])cc2Cl)c(=O)o1` [Example 64, 5-Methoxy-3-(2-chloro-4-nitrophenyl)-3H-(1,3,4)oxadiazol-2-one] gave a melting point of 92 °C.
`COc1nn(-c2ccc(NC(=O)NC3Cc4ccccc4C3)c(C)c2)c(=O)o1` [Example 81, 5-Methoxy-3-(3-methyl-4-(indan-2-ylaminocarbonylamino)phenyl)-3H-(1,3,4)oxadiazol-2-one] showed a melting point of 206 °C.
`COc1nn(-c2ccc(NC(=O)OCc3cccnc3)c(C)c2)c(=O)o1` [Example 83, 5-Methoxy-3-(3-methyl-4-(pyrid-3-ylmethoxycarbonylamino)phenyl)-3H-(1,3,4)oxadiazol-2-one] showed a melting point of 232 °C.
Compound `COc1nn(-c2ccc(NS(=O)(=O)c3ccccc3Cl)cc2)c(=O)o1` [Example 44, 5-Methoxy-3-(4-(2-chlorophenylsulfonylamino)phenyl)-3H-(1,3,4)oxadiazol-2-one] has a melting point of 171 °C.
Compound `COc1nn(-c2ccc(NC(=O)OCc3ccc(Cl)cc3)cc2)c(=O)o1` [Example 70, 5-Methoxy-3-(4-(4-chlorobenzyloxycarbonylamino)phenyl)-3H-(1,3,4)oxadiazol-2-one] has a melting point of 177 °C.
`COc1nn(-c2ccc(NS(=O)(=O)c3cccc(Cl)c3)cc2)c(=O)o1` [Example 45, 5-Methoxy-3-(4-(3-chlorophenylsulfonylamino)phenyl)-3H-(1,3,4)oxadiazol-2-one] gave a melting point of 141 °C.
In the case of `COc1nn(-c2cccc(N)c2)c(=O)o1` [Example 56, 5-Methoxy-3-(3-aminophenyl)-3H-(1,3,4)oxadiazol-2-one], the melting point is reported as 95 °C.
In the case of `COc1nn(-c2ccc(NC(=O)c3ccc(C(C)(C)C)cc3)c(F)c2)c(=O)o1` [Example 87, 5-Methoxy-3-(3-fluoro-4-(4-tert-butylbenzoylamino)phenyl)-3H-(1,3,4)oxadiazol-2-one], the melting point is reported as 144 °C.
For `COc1nn(-c2ccc(NC(=O)NCc3cccnc3)c(C)c2)c(=O)o1` [Example 82, 5-Methoxy-3-(3-methyl-4-(pyrid-3-ylmethylaminocarbonylamino)phenyl)-3H-(1,3, 4)oxadiazol-2-one], the melting point was 229 °C.
With `COc1nn(-c2ccc(NC(=O)CCCCl)c(C)c2)c(=O)o1` [Example 35, 5-Methoxy-3-(4-(4-chlorobutanoylamino)-3-methylphenyl)-3H-(1,3,4)oxadiazol-2-one] the melting point was 137 °C.
Work on `COc1nn(-c2ccc(NC(=O)C(C)(C)C)c(C)c2)c(=O)o1` [Example 36, 5-Methoxy-3-(4-pivaloylamino-3-methylphenyl)-3H-(1,3,4)oxadiazol-2-one] yielded a melting point of 157 °C.
